From patent US10434098B2, “Deuterated dehydrophenylahistin compounds and preparation method thereof and use thereof in preparation of anti-tumor drugs” (MARINE BIOMEDICAL RESEARCH INSTITUTE OF QINGDAO CO., LTD., priority 2015, dated 2019)

Key:
Assay type in all cases: cell-based
[1] = tested on: human acute T cell leukemia cell Jurkat; experiment: MTT inhibition ratio on tumor cells Jurkat; details: for Inhibition ratio (%): 72 h, MTT; for activity of inhibiting tumors compared with positive control: summary of Table 2
Description: (§1) The inhibition ratio of the selected compounds on tumor cells A431 and Jurkat is measured via the MTT analytical method.
(§2) 1) Cell strains: human skin cancer cell strain A431 and human acute T cell leukemia cell Jurkat. The ells grow in an RPMI-1640 culture medium and high glucose DMEM (Gibco BRL, Rockville, Md., USA)+10% fetal calf serum (containing 2 mM L-glutamine, penicillin and streptomycin), and putting them into an incubator at 37° C. (5% CO2-95% air) for growing, carrying out digestive passage with 0.25% trypsin, and changing the solution every 1 to 2 days.
(§3) 2) The dissolution and dilution of compounds: according to the molecular weight and mass of the compounds, preparing into a 10 mM of mother solution respectively using DMSO (SIGMA), and diluting to the required concentration of 100 μM (DMSO content≤3%o) with the RPMI-1640 culture medium. Storing the diluted drugs at temperature of −20° C.
(§4) 1) Cell inoculation: Taking cells in the logarithmic phase, after digestion with pancreatin, the cells disperse into single cells, counting, adjusting cell suspension to […], inoculating in the 96-well plates with 180 μL in each well, and making the amount of the inoculated cells is 4.0×10^3 cells/well. After cell attachment, adding the fresh culture media containing compounds with different concentrations respectively, making the concentrations of the compounds reach 12.5 nM and 6.25 nM, setting 3 duplicate wells for each concentration, operating in absence of light, and adjusting the content of DMSO in each concentration to be consistent.
(§5) 2) After drug incubation for 72 h, adding 20 μL of MTT (3-[4,5-dimethylthiazol-2-yl]-2,5-diphenyltetrazolium bromide, Sigma; 5 mg/mL) into each well, incubating in a incubator for 4 h, removing supernate, adding 150 μL of DMSO into each well for dissolving, and measuring absorbancy at 570 nm using the microplate reader. According to the formula: Inhibition ratio=[(A570 control well−A570 administration well)/A570 control well]×100%, to calculate the inhibition ratio of each concentration, and the result is shown in the table 2.

[2] = tested on: intracellular microtubulin of human epidermal carcinoma A431; experiment: High content imaging analysis of microtubulin (immunofluorescent staining, Alexa 488); details: 12.5 nM, 24 h; for Alexa488 stained fluorescence intensity of microtubulin in the cells: versus blank and DMSO control, FIG. 3/4; for microtubulin distribution and cellular morphology / Alexa488 fluorescence intensity compared with the positive control Plinabulin: A431 cells; for microtubulin distribution and cellular morphology: FIG. 3; for Alexa488 fluorescence intensity compared with the positive control Plinabulin: FIG. 4
Description: Plinabulin (dehydro-phenylahistin) is used as positive control, and concentration is set as 12.5 nM. According to the data in earlier-stage, 3 kinds of samples are selected, i.e., compounds 1, 2 and 3. The concentrations of all samples are set as 12.5 nM. According to the experiment method for specific immunofluorescent staining (Alexa 488), the effect of the compounds 1, 2 and 3 on the expression of intracellular microtubulin of human epidermal carcinoma A431 is detected via the high content imaging analysis system. 1) Taking cells in the logarithmic phase, after digestion with pancreatin, the cells disperse into single cells counting, inoculating in the 96-well plates at 1.2×10^4 cells/well, putting at temperature of 37° C., culturing in a 5% CO2 incubator for 24 h until cell attachment. 2) After cell attachment, for experiment group, adding the fresh culture medium containing compounds with different concentrations respectively into each well, making the concentrations of the compounds reach 12.5 nM, and setting 3 duplicate wells for each concentration. In the control group, adding a solvent DMSO with equimultiple diluting, selecting Plinabulin (dehydro-phenylahistin) as a positive drug, setting 3 duplicate wells in each group, and culturing in an incubator at temperature of 37° C. under 5% CO2 saturated humidity for 24 h. 3) Absorbing the culture medium after 24 h, and washing with PBS for 3 times; fixing with 4% paraformaldehyde for 30 min, absorbing paraformaldehyde, and washing with PBS for 3 times; sealing with 0.3% Triton X-100 and 5% BSA for 30 min, absorbing, and washing with PBS for 3 times; adding Tubulin antibody (mouse antibody, diluting in a ratio of 1:200), and staying overnight at temperature of 4° C.; absorbing, and washing with PBS for 3 times; adding DyLight 488-goat anti mouse IgG (diluting in a ratio of 1:1000), and placing at room temperature for 90 min 4) Photographing analysis of high content imaging analysis system

[3] = tested on: human skin cancer cell strain A431; experiment: MTT inhibition ratio on tumor cells A431; details: for Inhibition ratio (%): 72 h, MTT; for activity of inhibiting tumors compared with positive control: A431, summary of Table 2
Description: as §1, §2, §3, §4, §5

| Structure (SMILES) | Inhibition ratio (%) ([1]; concentration 12.5 nM) | activity of inhibiting tumors compared with positive control [1] | Alexa488 stained fluorescence intensity of microtubulin in the cells [2] | microtubulin distribution and cellular morphology [2] | Alexa488 fluorescence intensity compared with the positive control Plinabulin [2] | Inhibition ratio (%) ([3]; A431, concentration 12.5 nM) | activity of inhibiting tumors compared with positive control [3] | Inhibition ratio (%) ([1]; concentration 6.25 nM) | Inhibition ratio (%) ([3]; A431, concentration 6.25 nM) |
| --- | --- | --- | --- | --- | --- | --- | --- | --- | --- |
| [2H]/C(c1nc[nH]c1C(C)(C)C)=c1/[nH]c(=O)/c(=C/c2c([2H])c([2H])c([2H])c([2H])c2[2H])[nH]c1=O [Compound 1, (3Z,6Z)-3-(phenyl-2,3,4,5,6-d5)-methylene-6-((5-(tert-butyl)-1H-imidazol-4-yl)methylene-d)piperazine-2,5-dione] | 86.46 | close to that of the positive control Plinabulin | obviously enhanced | aggregation in microtubulin and a significant change in cellular morphology | higher than the positive control in the effect | 95.04 | close to that of the positive control Plinabulin |  |  |
| [2H]/C(c1c([2H])c([2H])c([2H])c([2H])c1[2H])=c1/[nH]c(=O)/c(=C/c2nc[nH]c2C(C)(C)C)[nH]c1=O [Compound 6, (3Z,6Z)-3-(phenyl-2,3,4,5,6-d5)-methylene-d-6-((5-(tert-butyl)-1H-imidazol-4-yl)methylene)piperazine-2,5-dione] | 73.40 | close to that of the positive control Plinabulin |  |  |  | 79.28 | close to that of the positive control Plinabulin | 7.70 | 16.17 |
| [2H]/C(c1ccccc1)=c1/[nH]c(=O)/c(=C/c2nc[nH]c2C(C)(C)C)[nH]c1=O [Compound 4, (3Z,6Z)-3-(phenylmethylene-d)-6-((5-(tert-butyl)-1H-imidazol-4-yl)methylene)piperazine-2,5-dione] | 82.33 | close to that of the positive control Plinabulin |  |  |  | 91.85 | close to that of the positive control Plinabulin | 16.04 | 53.90 |
| [2H]/C(c1nc[nH]c1C(C)(C)C)=c1/[nH]c(=O)/c(=C(\[2H])c2c([2H])c([2H])c([2H])c([2H])c2[2H])[nH]c1=O [Compound 7, (3Z,6Z)-3-(phenyl-2,3,4,5,6-d5)-methylene-d-6-((5-(tert-butyl)-1H-imidazol-4-yl)methylene-d)piperazine-2,5-dione] | 64.49 | close to that of the positive control Plinabulin |  |  |  | 87.73 | close to that of the positive control Plinabulin |  |  |
| [2H]c1c([2H])c([2H])c(/C=c2\[nH]c(=O)/c(=C/c3nc[nH]c3C(C)(C)C)[nH]c2=O)c([2H])c1[2H] [Compound 5, (3Z,6Z)-3-(phenyl-2,3,4,5,6-d5)-methylene-6-((5-(tert-butyl)-1H-imidazol-4-yl)methylene)piperazine-2,5-dione] | 16.86 | close to that of the positive control Plinabulin |  |  |  | 66.00 | close to that of the positive control Plinabulin |  |  |
| [2H]/C(c1nc[nH]c1C(C)(C)C)=c1/[nH]c(=O)/c(=C/c2ccccc2)[nH]c1=O [Compound 3, (3Z,6Z)-3-(phenylmethylene)-6-((5-(tert-butyl)-1H-imidazol-4-yl)methylene-d)piperazine-2,5-dione] | 86.09 | close to that of the positive control Plinabulin | obviously enhanced | aggregation in microtubulin and a significant change in cellular morphology | higher than the positive control in the effect | 93.79 | close to that of the positive control Plinabulin |  |  |
| [2H]/C(c1ccccc1)=c1/[nH]c(=O)/c(=C(\[2H])c2nc[nH]c2C(C)(C)C)[nH]c1=O [Compound 2, (3Z,6Z)-3-(phenylmethylene-d)-6-((5-(tert-butyl)-1H-imidazol-4-yl)methylene-d)piperazine-2,5-dione] | 79.65 | close to that of the positive control Plinabulin | obviously enhanced | aggregation in microtubulin and a significant change in cellular morphology | higher than the positive control in the effect | 94.11 | close to that of the positive control Plinabulin |  |  |
| CC(C)(C)c1[nH]cnc1/C=c1\[nH]c(=O)/c(=C/c2ccccc2)[nH]c1=O [Plinabulin, reference compound] | 79.69 |  | obviously enhanced | aggregation in microtubulin and a significant change in cellular morphology |  | 91.81 |  | 13.75 | 63.25 |
